Here are results for three compounds from patent US20260217659A1, “COMPOUNDS, COMPOSITIONS AND USES THEREOF IN THE TREATMENT AND PREVENTION OF DISEASES AND CONDITIONS ASSOCIATE WITH OR AGGRAVATED BY IMPAIRED MITOPHAGY OR OXIDATIVE STRESS” (Yissum Research Development Company of The Hebrew …, priority 2023, published 2026).

Series [1] has as its system Hep-3B cells. In words: Hep-3B cell survival. The series is classed as cell-based, human. The following applies: single agent, 72 h. Here is the method: (§1) FIGS. 6A-6E show how ST-480 and CQ effectively kill Hep-3B cancer cells. Bar graphs displaying the effects of ST-480 (6A) and CQ (6B) and their combined effect 6C) on Hep-3B cells' survival after 72 h—the experimental setup was similar Asterisks represent a comparison to vehicle control (6A and 6B) or towards (the same CQ concentration under vehicle treatment conditions (5C). *p<0.05, **p<0.01, ***p<0.001, ****p<0.0001. N=3 biological repeats. (5D) Representative images show the state of Hep-3B cells treated as described in (6C). Scale bar: 200 μm. (5E) BEAS-2B cells are not sensitive to ST-480, ns-non-significance. N-3. Error bars represent SEM.
(§2) To strengthen these conclusions, the impact of ST-480 and CQ was tested on another liver cancer cell line, namely Hep-3B′ the Hep-3B cell line originated from a person with primary hepatocellular carcinoma (HCC). […] In addition, the combined effect of ST-480 and CQ on Hep-3B survival was tested. […] In this respect, it should be emphasized that ST-480 was not toxic to non-cancer cells.

Series [2] concerns Huh-7 cells. In words: Huh-7 cell survival, MTT assay. The series is classed as cell-based, human. The following applies: 72 h. Here is the method:
Huh-7 cells (2000 per well, in 96-wells plate) were treated with 100 μM of each compound. Cell viability was measured by MTT assay after 72 h. Asterisks represent a comparison to vehicle control. ****p<0.0001. N=3 biological repeats. Error bars represent SEM.
(§3) FIGS. 5A-5D show how ST-480 and CQ kill Huh-7 cells in a dose-dependent manner. (5A) Surviving curves in 200 mM paraquat (PQ). Worms were treated with ST-480 at the indicated concentrations or with the vehicle as a control for 48 h. Afterward, they were treated with 200 mM PQ, and their survival was measured after 3 and 6 h. N=6 biological repeats, P values are indicated (compared with the vehicle control). Bar graphs displaying the survival of Huh-7 cells in different doses of CQ (4B) and ST-480 (5C) —the experimental setup was similar to that described in FIG. 1. Asterisks represent a comparison to vehicle control. N=3 biological repeats. (5D) Bar graph showing the combined effect of ST-480 and CQ on Huh-7 cells' survival after 72 h. *p<0.05, ***p<0.001, ****p<0.0001. N=3 biological repeats. *Error bars represent SEM.
ST-480, is one of the diamine compounds of the invention that inhibits liver cancer cell viability. […] Therefore, the activity of the polyamine compound of the invention in liver cancer therapy. To explore this, the inventors screened the effect of eight new compounds. In addition, the effect of two compounds in the context of lifespan, health-span, and proteotoxicity, i.e., the diamines VL-004 and VL-850 were examined, and the natural polyamine spermidine (Spd). Huh-7 cells (derived from hepatocellular carcinoma of a person) were exposed to 100 μM of each compound and examined their survival after 72 h using an MTT assay.
Chloroquine (CQ) has been used safely to treat malaria and to suppress autophagic flux. Moreover, as indicated above, it induces DNA damage and apoptosis in cancer cells. The effect of different CQ concentrations on Huh-7 cells' survival after 72 h were tested. In parallel, dose-response experiments testing ST-480 toxicity in these cells were performed.

Series [3] concerns Hep-3B cells. In words: Mitophagy: colocalization of mitochondria and lysosomes in Hep-3B cells. In kind it is cell-based, human. The note with it: 100 μM, 6 h. Here is the method:
FIGS. 7A-7B show how ST-480 induces mitophagy. (7A) Colocalization of mitochondria and lysosome. Arrowheads indicate representative colocalization. The inset represents an eight-fold enlargement-scale bar: 50 μm. (7B) Colocalization quantification. N=3, ≥412 cells per treatment. *p<0.05, Error bars represent SEM.
ST-480 induces mitophagy in Hep-3B cells. To explore whether ST-480 induces mitophagy, Hep-3B cells were exposed to 100 μM ST-480 or vehicle control for 6 h. To measure mitophagy, the colocalization of mitochondria and lysosomes were quantified using specific mitochondrial and lysosomal dyes. In addition, nuclei were stained using a DNA dye—For this, the Cytopainter ab139487 kit, was used.

For series [4], the system named is C. elegans. In words: Survival of worms in 200 mM paraquat (oxidative stress resistance). The note with it: 48 h treatment, then 200 mM paraquat, survival after 3 and 6 h. The series is classed as in vivo. Here is the method:
as §3
Chloroquine (CQ) enhances ST-480 cytotoxicity.

The subject of series [5] is BEAS-2B cells. In words: BEAS-2B non-cancer cell survival. In kind it is cell-based. The following applies: 70 µM and 100 μM, 72 h. Here is the method:
as §1, §2

Series [6] deals with NCI-H69 cells. In words: XTT proliferation inhibition, NCI-H69. The series is classed as cell-based. The following applies: Homo sapiens, NCI-H69, lung cancer (NSCLC), 72 h. Here is the method:
(§4) Cell lines: PANC-1. Organism: Homo sapiens, human/Tissue: Pancreas; Duct/Disease: Epithelioid Carcinoma HUH7. Organism: Homo sapiens, human/Tissue: Liver/Disease: Carcinoma; Hepatocellular NCI-H69. Organism: Homo sapiens, human/Tissue: Lung/Disease: NSCL U87 MG. Organism: Homo sapiens, human/Tissue: Brain/Disease: Glioma
(§5) PANC-1, HUH7, NCI-H69 and U87 MG cells are plated in one 96 well plate each, in their culture medium, at 7500 cells/well. Cells are allowed to attach for 16-24 hours at 37° C., 5% CO2. Thereafter, culture medium is discarded, and fresh culture medium is added to the cells, supplemented with elevating ST-1944 concentrations: 0.4, 2, 10 and 50 μM, 3 wells of each concentration (triplicates). The cells are incubated another 72±2 hours at 37° C., 5% CO2. At the end of incubation period, medium is discarded and 100 μL fresh culture medium is added to the cells along with 50 μL XTT reagent. The OD is measured in a plate reader once Vehicle treated cells are reach the range of 0.5-1.5 OD at 450 nm wavelength.
(§6) PANC-1 and HUH7culture medium: DMEM Medium (4.5 g/L glucose), supplemented with 10% FBS (heat inactivated), 2 mM L-Glutamine, and 1% of Pen/Strep Solution. U87 MG and NCI-H69 culture medium: EMEM Medium, supplemented with 10% FBS (heat inactivated), 2 mM L-Glutamine, and 1% of Pen/Strep Solution. […]
In general terms: Formazan colour is commonly taken as a measure of viable cells.

Series [7] has as its system U87 MG cells. In words: XTT proliferation inhibition, U87 MG. In kind it is cell-based. The following applies: Homo sapiens, U-87 MG, glioma (GBM), 72 h. Here is the method:
as §4, §5, §6

The subject of series [8] is HUH7 cells. In words: XTT proliferation inhibition, HUH7. In kind it is cell-based. The note with it: Homo sapiens, Huh-7, HUH7, liver cancer (HCC), 72 h. Here is the method:
as §4, §5, §6

The subject of series [9] is PANC-1 cells. In words: XTT proliferation inhibition, PANC-1. The note with it: Homo sapiens, Panc-1, pancreatic cancer, 72 h. The series is classed as cell-based. Here is the method: as §4, §5, §6

Each structure is given as a SMILES string. pIC50: −log10 of the molar value.

Consider `CCN(CC)CCCC(C)Nc1ccnc2cc(Cl)ccc12` (stereo not drawn) [CQ, chloroquine, reference compound], for which the “Hep-3B cells' survival” value in [1] is “sensitive to both ST-480 and CQ in a dose-dependent manner”. The “Huh-7 cells' survival, dose response” value in [2] (CQ at 7, 8, and 10 μM) is reported as “significantly decreased cells' survival”.

As for `NCCCCc1ccccc1CCCCN` [ST-480], the “mitophagy (colocalization of mitochondria and lysosomes)” value in [3] is recorded as “induces mitophagy in a significant manner”. In [1], the “Hep-3B cells' survival” value was “sensitive to both ST-480 and CQ in a dose-dependent manner”. In addition, the “resistance to oxidative stress” value in [4] is given as “confer resistance to oxidative stress”. Besides, the Huh-7 cell survival result in series [2] (100 μM, MTT assay) is reported as “significantly decreased Huh-7 cell survival”. In [2] (ST-480 at 60, 80, and 100 μM), the “Huh-7 cells' survival, dose response” value is on record as “significantly decreased cells' survival”. Also, in series [5], the “cell death of non-cancer BEAS-2B cells” value is reported as “did not observe a significant cell death”.

`Cn1ccnc1SCCCCc1ccccc1CCCCSc1nccn1C` [ST-1944]: the pIC50 was 5.00 in [6], 5.00 in series [7], 5.70 in [8] and 6.00 in series [9].

Usually pIC50 stands for the negative decadic logarithm of the IC50, by convention in mol/L.
